≈ marks a conversion by molar mass, not a printed value.
Tests used:
P. aeruginosa CDC-0054 = test: microbe, parasite or virus in culture; format: cell-based; conditions: Pseudomonas aeruginosa, CDC0054, read-out: Minimum inhibitory concentration, P. aeruginosa CDC-0054
K. pneumoniae SI-117 = test: microbe, parasite or virus in culture; format: cell-based; conditions: Klebsiella pneumoniae, SI117, read-out: MIC K. pneumoniae SI-117
[1] = tested on: P. aeruginosa (ΔmexAB-oprM); test: Broth microdilution MIC in CAMHB; format: cell-based; conditions: Pseudomonas aeruginosa; read-out: MIC P. aeruginosa ΔmexAB-oprM
P. aeruginosa ATCC 27853 = test: microbe, parasite or virus in culture; format: cell-based; conditions: Pseudomonas aeruginosa, ATCC27853, read-out: Minimum inhibitory concentration, P. aeruginosa ATCC 27853
E. coli ATCC 25922 = test: microbe, parasite or virus in culture; format: cell-based; conditions: Escherichia coli, ATCC25922, read-out: MIC E. coli 25922
[2] = target: T1, PBP3 from Acinetobacter baumannii (ATCC 19606) (Acinetobacter baumannii, UniProt A0ABX6CK25); test: Bocillin-FL fluorescence polarization competition binding, A. baumannii PBP3; conditions: fluorescence polarization competition binding assay using Bocillin-FL; read-out: A. baumannii PBP3 Potency
T1 sequence (A0ABX6CK25 64-610): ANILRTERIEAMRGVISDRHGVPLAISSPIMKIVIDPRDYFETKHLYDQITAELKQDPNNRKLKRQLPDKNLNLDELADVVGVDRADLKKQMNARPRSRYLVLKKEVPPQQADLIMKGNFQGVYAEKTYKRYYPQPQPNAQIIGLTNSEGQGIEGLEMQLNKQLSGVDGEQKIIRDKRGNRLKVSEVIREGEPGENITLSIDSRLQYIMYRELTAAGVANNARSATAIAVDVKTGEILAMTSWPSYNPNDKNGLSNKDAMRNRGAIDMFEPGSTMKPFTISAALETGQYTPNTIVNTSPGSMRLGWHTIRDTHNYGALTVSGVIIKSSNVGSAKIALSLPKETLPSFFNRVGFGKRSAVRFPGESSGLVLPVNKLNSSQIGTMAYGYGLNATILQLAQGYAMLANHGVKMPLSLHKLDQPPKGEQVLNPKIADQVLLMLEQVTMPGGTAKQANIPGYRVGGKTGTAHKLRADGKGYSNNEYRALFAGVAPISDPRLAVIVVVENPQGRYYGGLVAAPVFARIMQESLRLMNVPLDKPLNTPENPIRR
In short: (§1)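 Purified PBPs pre-incubated with inhibitor (E. coli PBP3 1.5 μM, 30 min; P. aeruginosa PBP3 0.75 μM, A. baumannii PBP1a 1 μM and PBP3 0.2 μM, 15 min), then Bocillin-FL 0.1 μM (0.05 μM for PBP1a) added; FP read up to 60 min. EC50 = concentration halving bound Bocillin-FL.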

P. aeruginosa CDC-0095 = test: microbe, parasite or virus in culture; format: cell-based; conditions: Pseudomonas aeruginosa, CDC0095, read-out: Minimum inhibitory concentration, P. aeruginosa CDC-0095
[3] = target: T2, PBP3 from Pseudomonas aeruginosa (PAO1) (Pseudomonas aeruginosa, UniProt G3XD46); test: Bocillin-FL fluorescence polarization competition binding, P. aeruginosa PBP3; conditions: Binding affinity to P. aeruginosa PBP3; fluorescence polarization competition binding assay using Bocillin-FL; read-out: P. aeruginosa PBP3 Potency
T2 construct: made in house
T2 sequence (G3XD46 whole entry): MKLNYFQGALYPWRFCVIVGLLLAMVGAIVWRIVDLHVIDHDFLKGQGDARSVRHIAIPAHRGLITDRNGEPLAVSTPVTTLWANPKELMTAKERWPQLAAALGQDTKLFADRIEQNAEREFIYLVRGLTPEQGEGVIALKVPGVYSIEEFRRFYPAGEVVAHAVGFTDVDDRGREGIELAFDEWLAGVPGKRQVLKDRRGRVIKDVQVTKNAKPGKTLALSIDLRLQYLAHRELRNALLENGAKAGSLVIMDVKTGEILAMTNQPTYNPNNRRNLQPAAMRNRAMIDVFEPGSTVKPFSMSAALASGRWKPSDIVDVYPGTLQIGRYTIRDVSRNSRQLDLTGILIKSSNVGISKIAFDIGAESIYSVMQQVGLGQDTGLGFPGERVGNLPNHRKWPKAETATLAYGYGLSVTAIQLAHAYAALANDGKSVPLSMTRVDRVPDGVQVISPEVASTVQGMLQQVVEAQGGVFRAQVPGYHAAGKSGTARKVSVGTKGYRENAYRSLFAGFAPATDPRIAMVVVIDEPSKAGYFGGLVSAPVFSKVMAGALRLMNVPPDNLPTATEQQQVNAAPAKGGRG
In short: as §1

Question: For `O=C(O)c1c(F)ccc2c1OB(O)[C@@H](NC(=O)C(NC(=O)N1CCN(Cc3ccc(O)c(O)c3Cl)C(=O)C1=O)c1ccc(P(=O)(O)O)cc1)C2` (stereo partly drawn) [Example 8, (3R)-3-(2-(4-(2-chloro-3,4-dihydroxybenzyl)-2,3-dioxopiperazine-1-carboxamido)-2-(4-phosphonophenyl)acetamido)-7-fluoro-2-hydroxy-3,4-dihydro-2H-benzo[e][1,2]oxaborinine-8-carboxylic acid], which MIC (P. aeruginosa CDC-0054) is on record?
Answer: Its MIC is less than 1 µg/mL.

Question: And the MIC (K. pneumoniae SI-117)?
Answer: Its MIC is 8 to 16 µg/mL (≈ 10.9 to 21.8 µM).

Question: And the MIC [1]?
Answer: Its MIC is less than 1 µg/mL.

Question: What about the MIC (P. aeruginosa ATCC 27853) of the same compound?
Answer: Its MIC is less than 1 µg/mL.

Question: What about the MIC (E. coli ATCC 25922) of the same compound?
Answer: The MIC was 2 to 4 µg/mL (≈ 2.72 to 5.44 µM).

Question: And the IC50 [2]?
Answer: The IC50 was less than 10 µM.

Question: What about the MIC (P. aeruginosa CDC-0095) of the same compound?
Answer: Its MIC is less than 1 µg/mL.

Question: What about the IC50 [3] of the same compound?
Answer: Its IC50 is less than 10 µM.
